Experimental data reported in PMC8064871 (International Journal of Biological Macromolecules, 2021).

Target: T1, human chymotrypsin-C (CTRC) (Homo sapiens, UniProt Q99895)
T1 sequence (Q99895 30-268): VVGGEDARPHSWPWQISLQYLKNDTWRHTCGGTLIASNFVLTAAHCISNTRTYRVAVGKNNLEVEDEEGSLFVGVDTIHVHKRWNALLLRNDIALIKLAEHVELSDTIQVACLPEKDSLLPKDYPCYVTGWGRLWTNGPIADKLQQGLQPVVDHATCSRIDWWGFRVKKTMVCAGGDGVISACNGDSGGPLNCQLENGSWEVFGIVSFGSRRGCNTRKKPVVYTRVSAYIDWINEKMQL
Assay: In vitro assessment of human chymotrypsin C
Format: biochemical
Details: 0, 1, 10, 100 µM; 30 min at 37 °C; OD405

CC1=CC(=O)c2ccccc2C1=O [Entry 1, 2-Methyl-1,4-naphthoquinone (vitamin K3), reference compound]
inhibition of human CTRC activity (in words): selectively inhibit SARS-CoV-2 and SARS-CoV 3CL^pro, rather than human CTRC
